Square brackets hold non-standard residues; d marks the D form. Peptide text beside a SMILES is read from it.
Columns and labels:
[1] = target: T1, α-syn monomer (full-length) (Homo sapiens, UniProt P37840); experiment: SPR single-cycle kinetics, peptide immobilized, α-syn as analyte; format: binding; settings: for deviation from 1:1 model (additional binding mode): suggested from deviation of fits for later injections
T1 construct: made in house; host or cells: E. coli BL21(DE3), co-expressed with pNatB (N-terminal acetylation enzyme from Schizosaccharomyces pombe)
Description: The experiment was performed as an individual measurement. […] The non-referenced signal of the active and referenced surface is shown in Supplementary Fig. 7. […] Full-length α-syn was injected for 100 s at 30 µl/min in PBS 7.4 in a serial dilution ranging from 15 to 250 nM, followed by a dissociation time of 60 min. Y-axis scaling was adjusted to (A).
Measurements were performed using an 8K Biacore device (Cytiva, USA). Interactions were measured using single-cycle kinetics experiments. For all assays, the peptide compounds were immobilized as ligand on the sensor surface and recombinant α-syn was injected as analyte in the flow. […] Surface quenching was performed using 1 M ethanolamine, pH 8.3. The kinetic experiments were performed using a flow rate of 30 µl/min in PBS pH 7.4 if not otherwise stated. The surface was regenerated in between cycles using 30 s injections of 2 M Gua-HCl at 30 µl/min. Data evaluation was performed using Biacore Insight Evaluation Software v3.0 (Cytiva, USA).

[2] = tested on: recombinant full-length α-syn; experiment: De novo ThT aggregation screening assay (50 µM α-syn); format: biochemical
Description: The Thioflavin T (ThT) assay is commonly used for the visualization of α-syn fibrilization, since the dye ThT is able to bind to the amyloidogenic cross-β-sheet proportions of fibril structures. Recombinant α-syn was thawed on ice and centrifuged for 30 min at 21,000 × g and 4 °C. The concentration of the supernatant was determined as described previously. Lyophilized D-peptides were thawed at RT for 1 h and dissolved in 500 µl PBS pH 7.4. After centrifugation for 30 min at 21,000 × g the supernatant concentration was determined by UV–vis using the corresponding extinction coefficient at A280. All ThT assay experiments were performed at 37 °C with 15 µM ThT and 0.05% sodium azide (w/v) in PBS pH 7.4 if not otherwise stated. ThT fluorescence was monitored with bottom optics at λex = 448 nm and λem = 482 nm in a fluorescence plate reader with orbital averaging on 3 mm (Clariostar or Polarstar Optima, BMG labtech, GE). […]
ThT assay was used for different purposes. […] Lag-time and t½ were calculated as described previously. […]
Monomeric α-syn (Supplementary Fig. 3) was incubated with or without a 3-fold molar excess of the D-peptides. […] The ThT positive aggregation was fitted with a symmetric Boltzmann fit and t ½- and lag-time were calculated accordingly. […] ThT fluorescence progression was measured in a 96-well non-binding half-area with a FLUOStar plate reader at λex = 448 nm and λem = 482 nm. […]

[3] = tested on: 15N-labeled full-length acetyl-α-syn; experiment: 1H-15N HSQC NMR; format: binding
Description: Samples were prepared at final concentrations of 25 µM ^15N-labeled full-length acetyl-α-syn in the absence (reference) and presence of an equimolar amount of SVD-1a (not isotopically labeled, thus NMR-invisible) in PBS buffer, pH 7.4, with an addition of 5% D2O for internal reference. 2D 1H-15N HSQC spectra were recorded back-to-back, on a Bruker AVANCE NEO spectrometer (Bruker, USA) operating at 1200 MHz proton Larmor frequency. The experimental temperature was 10 °C. Spectral dimensions were 16.02 ppm (^1H) x 30 ppm (^15N), with 2048 points in the ^1H dimension and 256 increments in the ^15N dimension, resulting in an acquisition time of 53 ms for the ^1H dimension and 35 ms for the ^15N dimension. For each increment, 32 scans were recorded, with a recovery delay of 1 s between scans, resulting in an overall experimental time of […] per spectrum.
NMR data sets were processed using the Bruker TopSpin software (version 4.1.1) and visualized using CcpNmr Analysis (v2.4.2)[59]. For the assessment of chemical shift changes of α-syn resonances in the presence of SVD-1a relative to the reference spectrum (without SVD-1a), peak positions were extracted using the CcpNmr Analysis software. From the residue-specific chemical shift changes in the ^1H and ^15N dimensions, an absolute chemical shift change, Δδ, was calculated using the formula Δδ = 0.5δH2+0.14δN2 [60]. […]

| SMILES | deviation from 1:1 model (additional binding mode) [1] | effect on α-syn aggregation, concentration dependency ([2]; 50 µM α-syn with 50, 150 or 250 µM D-peptide, PBS pH 7.4, n = 5) | effect on α-syn aggregation (t½ and lag-time) ([2]; 50 µM α-syn, 3-fold molar excess peptide, PBS pH 7.4, 37 °C, shaking 300 rpm 30 s per cycle, n = 3) | Kd [1] [nM] | koff ([1]; 1:1 Langmuir-based model, immobilized peptide, α-syn analyte, PBS pH 7.4, dissociation 60 or 30 min, individual measurement) [s⁻¹] | kon ([1]; 1:1 Langmuir-based model, immobilized peptide, α-syn analyte, PBS pH 7.4, individual measurement) [M⁻¹ s⁻¹] | sequence specificity of binding ([1]; comparison of SVD-1a and SVD-1a_scr.+5r) | NMR chemical shift changes of α-syn ([3]; 25 µM 15N-α-syn + 25 µM SVD-1a, PBS pH 7.4, 10 °C, 1200 MHz) | precipitation of α-syn in NMR sample ([3]; 25 µM α-syn with 25 µM SVD-1a, 4.8 h at 10 °C) |
| --- | --- | --- | --- | --- | --- | --- | --- | --- | --- |
| CC[C@@H](C)[C@@H](NC(=O)[C@@H](Cc1c[nH]cn1)NC(=O)[C@@H](CCC(=O)O)NC(=O)[C@@H](CCC(N)=O)NC(=O)[C@@H](Cc1c[nH]c2ccccc12)NC(=O)[C@@H](Cc1ccc(O)cc1)NC(=O)[C@H](NC(=O)[C@@H](CCC(=O)O)NC(=O)[C@@H](Cc1c[nH]cn1)NC(=O)[C@H](NC(=O)[C@H]1CCCN1C(=O)[C@@H](CCSC)NC(=O)[C@H](N)CCCCN)[C@H](C)O)[C@H](C)O)C(=O)N[C@H](Cc1c[nH]c2ccccc12)C(=O)N[C@H](Cc1c[nH]cn1)C(=O)N[C@H](C)C(N)=O [SVD-1] (H-[dK][dM][dP][dT][dH][dE][dT][dY][dW][dQ][dE][dH][dI][dW][dH][dA]-NH2) | additional low-affinity binding mode in the higher nM range | most efficient | delayed α-syn aggregation | – | – | – | – | – | – |
| CC[C@@H](C)[C@@H](NC(=O)[C@@H](Cc1c[nH]cn1)NC(=O)[C@@H](CCC(=O)O)NC(=O)[C@@H](CCC(N)=O)NC(=O)[C@@H](Cc1c[nH]c2ccccc12)NC(=O)[C@@H](Cc1ccc(O)cc1)NC(=O)[C@H](NC(=O)[C@@H](CCC(=O)O)NC(=O)[C@@H](Cc1c[nH]cn1)NC(=O)[C@H](NC(=O)[C@H]1CCCN1C(=O)[C@@H](CC(C)C)NC(=O)[C@H](N)CCCNC(=N)N)[C@H](C)O)[C@H](C)O)C(=O)N[C@H](Cc1c[nH]c2ccccc12)C(=O)N[C@H](Cc1c[nH]cn1)C(=O)N[C@H](C)C(=O)N[C@H](CCCNC(=N)N)C(=O)N[C@H](CCCNC(=N)N)C(=O)N[C@H](CCCNC(=N)N)C(=O)N[C@H](CCCNC(=N)N)C(=O)N[C@H](CCCNC(=N)N)C(N)=O [SVD-1a] (H-[dR][dL][dP][dT][dH][dE][dT][dY][dW][dQ][dE][dH][dI][dW][dH][dA][dR][dR][dR][dR][dR]-NH2) | additional low-affinity binding mode in the higher nM range | – | – | 0.1 | 3.13e-05 | 313000 | sequence-specific | the chemical shift changes are very small, with most residues showing significant chemical shift changes located in the C-terminal region | did not yield any signs of signal loss due to precipitation |
